Measured values reported in patent US9487508B2, “SGC stimulators” (IRONWOOD PHARMACEUTICALS, INC., priority 2012, dated 2016).

How the values were obtained:
[1] = test system: Guinea pig tracheal smooth muscle; assay: Electrical field stimulated guinea pig tracheal smooth muscle contraction (ex vivo); details: sub-maximal EFS; pooled data of three experiments; 95% CI 0.78-0.94; read-out: IC50, inhibition of EFS-induced tracheal smooth muscle contraction
Description: It is possible to assess the bronchodilating effects of sGC stimulators by using the system described below. This system allowed us to determine potency, efficacy and duration of action of several sGC stimulators, as well as to assess potential side effects such as blood pressure, or heart rate changes.
Animals: Guinea pig, Dunkin Hartley, male, Full barrier-bred and certified free of specific micro-organisms on receipt 525-609 g on the experimental day, Harlan UK Ltd. Guinea pigs were housed in a group of 4 in solid-bottomed cages with Gold Flake bedding in a controlled environment (airflow, temperature and humidity). Food (FD1, Special Diet Services) and water were provided ad libitum.
On each experimental day, a guinea pig was killed by exposure to a rising concentration of CO2 and the trachea removed. […] Tissues were washed with Kreb's buffer and stimulated using the previously determined sub-maximal voltage for 1 hour to establish a stable baseline contraction prior to assessment of compound activity.
A cumulative dose response curve (DRC) to each test substance was then performed and changes in smooth muscle contraction measured. The effect of each test substance in each experiment was expressed as a percentage inhibition of the baseline contraction, normalized to the relevant vehicle controls. […]

[2] = molecular target: T1, soluble guanylate cyclase (sGC) (Homo sapiens, UniProt Q02108+Q02153); assay: sGC-HEK-cGMP assay with SNP incubation (LC/MS read-out); assay type: cell-based; details: 10 μM SNP, 100% = BAY 41-2272 at 10 μM with 100 μM SNP
T1 construct: endogenously expressing soluble guanylate cyclase (sGC); endogenous in cells; host or cells: HEK293
T1 sequence (Q02153 1-619): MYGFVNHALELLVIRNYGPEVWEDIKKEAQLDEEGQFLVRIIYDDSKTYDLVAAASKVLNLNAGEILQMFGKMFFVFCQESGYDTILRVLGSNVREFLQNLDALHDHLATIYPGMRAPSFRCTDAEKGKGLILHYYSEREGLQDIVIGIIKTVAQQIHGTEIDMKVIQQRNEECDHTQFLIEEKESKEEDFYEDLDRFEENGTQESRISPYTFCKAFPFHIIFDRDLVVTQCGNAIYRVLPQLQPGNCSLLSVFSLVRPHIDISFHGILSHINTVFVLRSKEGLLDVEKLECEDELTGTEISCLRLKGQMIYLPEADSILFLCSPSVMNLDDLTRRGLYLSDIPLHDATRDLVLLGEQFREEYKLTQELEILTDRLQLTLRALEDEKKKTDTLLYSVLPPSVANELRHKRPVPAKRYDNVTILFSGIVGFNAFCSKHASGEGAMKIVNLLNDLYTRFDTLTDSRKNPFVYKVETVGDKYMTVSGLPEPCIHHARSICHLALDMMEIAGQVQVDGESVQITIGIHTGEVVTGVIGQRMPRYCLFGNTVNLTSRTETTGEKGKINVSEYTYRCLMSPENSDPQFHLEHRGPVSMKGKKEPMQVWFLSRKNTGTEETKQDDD
T1 sequence (Q02108 1-690): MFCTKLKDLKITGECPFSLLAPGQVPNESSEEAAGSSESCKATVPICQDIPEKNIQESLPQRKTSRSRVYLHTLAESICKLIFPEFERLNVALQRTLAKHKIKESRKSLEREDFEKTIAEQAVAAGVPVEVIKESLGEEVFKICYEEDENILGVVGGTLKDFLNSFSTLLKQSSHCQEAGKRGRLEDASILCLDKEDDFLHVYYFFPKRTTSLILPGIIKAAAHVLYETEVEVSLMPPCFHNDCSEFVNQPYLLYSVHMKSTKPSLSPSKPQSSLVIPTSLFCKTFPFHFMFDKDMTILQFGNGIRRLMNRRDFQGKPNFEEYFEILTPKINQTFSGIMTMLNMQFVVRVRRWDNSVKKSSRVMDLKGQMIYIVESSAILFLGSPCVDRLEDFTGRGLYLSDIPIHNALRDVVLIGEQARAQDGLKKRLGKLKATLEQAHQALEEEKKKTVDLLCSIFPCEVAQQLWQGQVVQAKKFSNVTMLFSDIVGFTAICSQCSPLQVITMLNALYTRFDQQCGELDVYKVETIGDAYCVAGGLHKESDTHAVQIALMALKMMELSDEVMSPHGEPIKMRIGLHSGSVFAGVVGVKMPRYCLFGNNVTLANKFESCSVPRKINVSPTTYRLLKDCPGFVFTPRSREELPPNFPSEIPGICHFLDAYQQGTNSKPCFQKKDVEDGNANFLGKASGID
Experimental: (Assay Run with SNP Incubation)
Human embryonic kidney cells (HEK293), endogenously expressing soluble guanylate cyclase (sGC), were used to evaluate the activity of test compounds. Compounds stimulating the sGC receptor should cause an increase in the intracellular concentration of cGMP. HEK 293 cells were seeded in Dulbecco's Modification of Eagle's Medium supplemented with fetal bovine serum (10% final) and L-glutamine (2 mM final) in a 200 μL volume at a density of 1×10^5 cells/well in a poly-D-lysine coated 96 well flat bottom plate and grown overnight at 37° C. Medium was aspirated and cells were washed with 1× Hank's Buffered Saline Salt Solution (200 μL). Cells were then incubated for 15 minutes at 37° C. with 200 μL of a 0.5 mM 3-isobutyl-1-methylxanthine (IBMX) solution. Test article and sodium nitroprusside solutions (x μM concentration for test article solution and 10 μM concentration for SNP solution; wherein x is one of the following concentrations);
were then added to the assay mixture (2 μL each) and the resulting mixture incubated at 37° C. for 10 minutes. After the 10 minute incubation, the assay mixture was aspirated and 0.1M HCl (200 μL) was added to the cells. The plate was incubated at 4° C. for 30 minutes in the 0.1M HCl to stop the reaction and lyse the cells. The plates were then centrifuged at 1,200 g for 5 minutes at room temperature. Supernatants were collected and transferred to a new flat bottom 96 well plate for analysis by HPLC-MS. Vehicle controls were carried out using DMSO (1%) solutions. A known sGC stimulator, BAY 41-2272, was used as the positive control. Samples were diluted with an equal volume of 1 M Ammonium Acetate (pH 7) to neutralize samples for better chromatography. A 2×cGMP standard solution was prepared in 0.1 M HCl and then diluted with an equal volume of 1 M Ammonium Acetate, with the following final concentrations in nM: 1024, 512, 256, 128, 64, 32, 16, 8, 4, 2, 1. cGMP concentrations in the test plates were determined from each sample using the LC/MS conditions shown in Table 2 below and the calculated cGMP standard curve. EC50 values were calculated from concentration-response curves generated with GraphPad Prism Software.
The biological activities of some of the compounds of Formula I or Formula Ib determined with the sGC-HEK assay with SNP incubation are summarized in Tables 3A and 3B.

[3] = molecular target: T2, Human soluble guanylate cyclase enzyme (hsGC) (Homo sapiens, UniProt Q02108+Q02153); assay: Purified human sGC enzyme synergy assay in the presence of sodium nitroprusside (SNP); assay type: biochemical; details: 30 μM compound, 1 μM SNP; fold change of specific activity vs DMSO control
T2 construct: purchased Enzo Inc. ALX-201-177
T2 sequence (Q02153 1-619): T1 sequence (Q02153 1-619)
T2 sequence (Q02108 1-690): T1 sequence (Q02108 1-690)
Experimental: (§1) Human soluble guanylate cyclase enzyme (hsGC) obtained from Enzo Inc. (P/N: ALX-201-177) was used to evaluate the activity of test compounds. The assay reactions contained 0.1 M Tris (pH 8.0), 0.5 mg/mL BSA (pH 8.0), 2 mM DTT, 2 mM MgCl2, 300 μM GTP, 1 mM 3-isobutyl-1-methylxanthine (IBMX) and 5 ng human soluble guanylate cyclase enzyme. Test compounds in DMSO were then added (2 μL, 10 or 30 μM final concentration) and incubated (water, 200 μL, 96-well plate format) at 37° C. for 30 minutes. The controls were carried out using 2 μL DMSO. After the 30 minute incubation, the reaction was stopped with the addition of 200 μL of cold methanol. The plate was then centrifuged at 3,200 rpm for 10 minutes at room temperature. Supernatants (200 μL) were collected and transferred to a new 96 well plate for analysis by HPLC LC/MS/MS.
(§2) An 8 point cGMP (Sigma-Aldrich P/N: G6129) standard curve was prepared in assay buffer ranging from 0.156-20 μM. Samples for the cGMP standard curve were then diluted with an equal volume of methanol resulting in final cGMP concentrations of 0.078-10 μM.
(§3) The cGMP standard curve was generated using GraphPad Prism Software.
Calculations: Specific Activity was determined by the amount of cGMP formed (nmoles) per mg of sGC per min. Enzyme “fold-change” was calculated by dividing Specific Activity for test compounds by Specific Activity of DMSO controls. […]

[4] = molecular target: T2, Human soluble guanylate cyclase enzyme (hsGC); assay: Purified human sGC enzyme activity assay (without SNP); assay type: biochemical; details: 30 μM compound, fold change of specific activity vs DMSO control
Experimental: as §1, §2, §3
Calculations: Specific Activity was determined by the amount of cGMP formed (nmoles) per mg of sGC per min. Enzyme “fold-change” was calculated by dividing Specific Activity for test compounds by Specific Activity of DMSO controls.

Emax at 10 µM ([2]; 10 μM compound, read-out: HEK assay (Percent Emax at 10 μM))	Emax at 30 µM ([2]; 30 μM compound, read-out: HEK assay (Percent Emax at 30 μM))	Enzyme Activity (increase at 30 μM with SNP) [3]	Enzyme Activity (increase at 30 μM without SNP) [4]	Structure (SMILES)	IC50 [1]
				CC(C)[N+]1(C)[C@@H]2CC[C@H]1CC(OC(=O)C(CO)c1ccccc1)C2 (some centres unmarked) [Ipratropium bromide]	0.86 nM
60 to 80%	60 to 80%	E (E = 20 to 30 fold increase)	C (C = 5 to <10 fold increase)	Nc1nc(-n2cc(-c3ncco3)c(Cc3ccccc3F)n2)ncc1F [Compound I-8]	
